Source: PMC12152883, “Bile acids inhibit equilibrative adenosine transport to alter adenosine receptor signaling in cholestasis” (The Journal of Biological Chemistry, 2025)
“And” between values parts separate entries of the source, which are not always exact repeats. Identical values can stand only once. Like-named read-outs stand apart in the source and are kept apart here.

What was measured:
ENT1 = molecular target: T1, ENT1 (Homo sapiens, UniProt Q99808); test: Inhibition of 3H-nucleoside influx by BAs in ENT1-expressing Xenopus oocytes; format: cell-based; settings: 3H-Ado 20 μM, sodium-free buffer; for ENT1 % uptake inhibition (Ado): BA 100 μM
T1 construct: The complete ORF of ENT1 (amplified using forward primer); expressed in transfected cells; host or cells: Xenopus laevis oocytes injected with in vitro-transcribed capped mRNA from pOX-hENT1
T1 sequence (Q99808 1-456): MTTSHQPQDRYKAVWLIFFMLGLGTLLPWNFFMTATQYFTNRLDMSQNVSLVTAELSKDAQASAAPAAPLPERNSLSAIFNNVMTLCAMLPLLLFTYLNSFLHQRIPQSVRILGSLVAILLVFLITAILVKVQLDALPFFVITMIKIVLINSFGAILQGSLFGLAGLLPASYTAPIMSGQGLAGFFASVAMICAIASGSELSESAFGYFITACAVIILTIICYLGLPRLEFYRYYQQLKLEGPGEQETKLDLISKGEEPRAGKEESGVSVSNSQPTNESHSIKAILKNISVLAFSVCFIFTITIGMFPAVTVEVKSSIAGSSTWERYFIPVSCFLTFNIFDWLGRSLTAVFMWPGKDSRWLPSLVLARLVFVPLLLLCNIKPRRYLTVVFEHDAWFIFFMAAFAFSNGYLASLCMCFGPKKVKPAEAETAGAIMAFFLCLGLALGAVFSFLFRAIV
From the text: (§1) We expressed individual ENTs (ENT1, ENT2, and ENT3) in X. laevis oocytes (as described above) and analyzed the Ado influx from each of the ENTs in the presence of different BAs to better understand whether the inhibition profiles differ across human ENTs. […] We also conducted an analysis of the concentration-dependent inhibition of Ado transport to estimate the IC50 values of the BAs (Fig. 4, D–F and Table 2).
(§2) Inhibition of Ado influx in H2O- and ENT-injected oocytes by treatment with different BAs at 100 μM. D–F, concentration-dependent inhibition of Ado influx in ENT-injected oocytes by different BAs. The bars represent the mean ± SD (n = 8–12 oocytes). A representative experiment from 3 to 5 independent experiments is presented. Statistical analysis was performed using one-way ANOVA with Dunnett’s multiple comparisons test; ∗p < 0.032, ∗∗p < 0.0021, ∗∗∗∗p < 0.0001.
(§3) The generated pOX expression constructs were linearized with either the Not1 or Sac1 restriction enzymes. The digested products were purified via phenol‒chloroform extraction. The mRNAs were synthesized using mMESSAGE mMACHINE (Ambion) transcription kits according to the manufacturer’s instructions. The mRNAs were purified via lithium precipitation. Oocytes were procured from Ecocyte. Prior to experiments, procured oocytes were defolliculated by treating with collagenase A-OR II solution followed by washing with Barth’s solution. Following microscopic verification, selected oocytes were incubated to recover overnight at 25 °C in a shaker incubator. Fifty nanoliters (400–800 ng/μl) of equal amounts of mRNAs were injected into defolliculated oocytes the next day. Expression of plasmids was analyzed after RNA isolation from oocyte extracts and conducting qPCR analysis with gene-specific primers as described earlier ([30]). The injected oocytes were incubated at 15 °C for 24 h before transport assays were performed. […] Uptake was terminated by washing the oocytes three times with arrest buffer containing 20 mM uridine. Individual oocytes were shaken overnight in 10% SDS for complete dissolution, and then the radioactivity was quantified with a Beckman liquid scintillation counter. The data are presented as the mean ± SD (n = 8–12 oocytes). A representative experiment from 3 to 5 independent experiments is presented.

ENT3 = molecular target: T2, ENT3 (Homo sapiens, UniProt Q9BZD2); test: Inhibition of 3H-nucleoside influx by BAs in ENT3-expressing Xenopus oocytes; format: cell-based
T2 construct: plasma membrane–directed ENT3 with a truncated N-terminus (that harbors lysosomal targeting motif); expressed in transfected cells; host or cells: Xenopus laevis oocytes injected with in vitro-transcribed mRNA from pOX-Δ36hENT3
T2 sequence (Q9BZD2 with tags, fused parts or gaps): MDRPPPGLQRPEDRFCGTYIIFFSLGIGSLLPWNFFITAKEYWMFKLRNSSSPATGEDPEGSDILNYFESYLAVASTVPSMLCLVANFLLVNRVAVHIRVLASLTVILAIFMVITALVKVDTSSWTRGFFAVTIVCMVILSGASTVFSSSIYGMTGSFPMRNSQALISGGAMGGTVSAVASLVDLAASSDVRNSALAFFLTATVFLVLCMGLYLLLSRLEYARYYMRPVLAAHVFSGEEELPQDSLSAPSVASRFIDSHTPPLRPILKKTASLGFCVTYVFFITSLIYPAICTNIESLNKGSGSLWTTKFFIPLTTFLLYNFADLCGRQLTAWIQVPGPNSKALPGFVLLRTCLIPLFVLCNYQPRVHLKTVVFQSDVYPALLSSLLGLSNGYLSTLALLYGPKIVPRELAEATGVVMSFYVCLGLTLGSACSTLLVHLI
From the text: as §1, §2, §3

[1] = read-out: ENT1 IC50 (Ado uptake)
[2] = 3H-Ado 20 μM, sodium-free buffer, read-out: ENT3 IC50 (Ado uptake)
[3] = BA 100 μM, 3H-Ado 20 μM, sodium-free buffer

SMILES | IC50 (ENT1; [1]) [µM] | ENT1 % uptake inhibition (Ado) (ENT1) | IC50 (ENT3; [2]) [µM] | ENT3 % uptake inhibition (Ado) (ENT3; [3]) | inhibition of guanosine transport activity of ENT3 (ENT3; BA 100 μM, 3H-guanosine 20 μM) | IC50 (ENT1; ENT1 IC50 (Ado uptake)) [µM] | IC50 (ENT3) [µM]
C[C@H](CCC(=O)O)[C@H]1CC[C@H]2[C@@H]3[C@H](O)C[C@@H]4C[C@H](O)CC[C@]4(C)[C@H]3C[C@H](O)[C@]12C [CA, cholic acid] | 42.1 ± 8.7 | 45.48% | 1.2 ± 0.4 | 77.1% |  |  | 
C[C@H](CCC(=O)O)[C@H]1CC[C@H]2[C@@H]3CC[C@@H]4C[C@H](O)CC[C@]4(C)[C@H]3C[C@H](O)[C@]12C [DCA, deoxycholic acid] | 56.4 ± 14.9 | 69% and 71.01% | 0.6 ± 0.1 | 79% and 79.9% | inhibited |  | 
C[C@H](CCC(=O)NCCS(=O)(=O)O)[C@H]1CC[C@H]2[C@@H]3[C@H](O)C[C@@H]4C[C@H](O)CC[C@]4(C)[C@H]3C[C@H](O)[C@]12C [TCA, taurocholic acid] |  | 80.39% |  | 72.3% |  | 52.9 ± 14.6 | 52.6 ± 22.2
